System: A375 multi-cell spheroids with HUVEC/MSC, viability
Assay: Anticancer human tumor A375 cell line growth inhibition [GQUAD];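 further: spheroids exposed to compounds for seven days before readout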
Details: for IC50: curve of first compound; for viability, T/C: stronger effect = lower value
Summary of the method: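 Tumor cells were grown as complex spheroids with HUVEC endothelial cells and mesenchymal stem cells as stroma. G-quadruplex stabilizers were combined with targeted agents over half-log dilutions from near the clinical Cmax, or from 10 microM.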

[1] = second compound 0.0316 µM, first compound 0.0316 µM
[2] = second compound 0.0316 µM, first compound 0.1 µM
[3] = second compound 0.0316 µM, first compound 0.316 µM
[4] = second compound 0.0316 µM, first compound 1 µM
[5] = second compound 0.0316 µM, first compound 3.16 µM
[6] = second compound 0.0316 µM, first compound 10 µM
[7] = second compound 0.1 µM, first compound 0.0316 µM
[8] = second compound 0.1 µM, first compound 0.1 µM
[9] = second compound 0.1 µM, first compound 0.316 µM
[10] = second compound 0.1 µM, first compound 1 µM
[11] = second compound 0.1 µM, first compound 3.16 µM
[12] = second compound 0.1 µM, first compound 10 µM
[13] = second compound 0.316 µM, first compound 0.0316 µM
[14] = second compound 0.316 µM, first compound 0.1 µM
[15] = second compound 0.316 µM, first compound 0.316 µM
[16] = second compound 0.316 µM, first compound 1 µM
[17] = second compound 0.316 µM, first compound 3.16 µM
[18] = second compound 0.316 µM, first compound 10 µM
[19] = second compound 1 µM, first compound 0.0316 µM
[20] = second compound 1 µM, first compound 0.1 µM
[21] = second compound 1 µM, first compound 0.316 µM
[22] = second compound 1 µM, first compound 1 µM
[23] = second compound 1 µM, first compound 3.16 µM
[24] = second compound 1 µM, first compound 10 µM
[25] = second compound 3.16 µM, first compound 0.0316 µM
[26] = second compound 3.16 µM, first compound 0.1 µM
[27] = second compound 3.16 µM, first compound 0.316 µM
[28] = second compound 3.16 µM, first compound 1 µM
[29] = second compound 3.16 µM, first compound 3.16 µM
[30] = second compound 3.16 µM, first compound 10 µM
[31] = second compound 10 µM, first compound 0.0316 µM
[32] = second compound 10 µM, first compound 0.1 µM
[33] = second compound 10 µM, first compound 0.316 µM
[34] = second compound 10 µM, first compound 1 µM
[35] = second compound 10 µM, first compound 3.16 µM
[36] = second compound 10 µM, first compound 10 µM

## Cc1cccc(N(C)C(=O)C2C(O)CCN2c2nc(C)cc(C(F)(F)F)c2C#N)c1 (stereo unspecified) + Cc1cnc(CNC(=O)c2c(=O)c3ccc(N4CCCN(C)CC4)nc3n3c2sc2ccccc23)cn1
Second compound 0.0316 µM
  IC50: > 10000 nM
Second compound 0.1 µM
  IC50: > 10000 nM
Second compound 0.316 µM
  IC50: > 10000 nM
Second compound 1 µM
  IC50: < 31.6 nM
Second compound 3.16 µM
  IC50: < 31.6 nM
Second compound 10 µM
  IC50: < 31.6 nM
[1]
  viability, T/C: 104%
[2]
  viability, T/C: 89.9%
[3]
  viability, T/C: 104%
[4]
  viability, T/C: 107%
[5]
  viability, T/C: 99.3%
[6]
  viability, T/C: 122%
[7]
  viability, T/C: 75.8%
[8]
  viability, T/C: 69.7%
[9]
  viability, T/C: 77.2%
[10]
  viability, T/C: 76%
[11]
  viability, T/C: 78.8%
[12]
  viability, T/C: 71.8%
[13]
  viability, T/C: 55.6%
[14]
  viability, T/C: 52%
[15]
  viability, T/C: 50.4%
[16]
  viability, T/C: 52.2%
[17]
  viability, T/C: 63.3%
[18]
  viability, T/C: 60.9%
[19]
  viability, T/C: 42.9%
[20]
  viability, T/C: 41.6%
[21]
  viability, T/C: 42.8%
[22]
  viability, T/C: 41.8%
[23]
  viability, T/C: 49.2%
[24]
  viability, T/C: 38.4%
[25]
  viability, T/C: 30.5%
[26]
  viability, T/C: 31.4%
[27]
  viability, T/C: 41%
[28]
  viability, T/C: 31.8%
[29]
  viability, T/C: 35.6%
[30]
  viability, T/C: 38.4%
[31]
  viability, T/C: 31.8%
[32]
  viability, T/C: 29.8%
[33]
  viability, T/C: 33.9%
[34]
  viability, T/C: 33.1%
[35]
  viability, T/C: 35.4%
[36]
  viability, T/C: 32.1%

## Cn1ncnc1[C@H]1c2n[nH]c(=O)c3cc(F)cc(c23)N[C@@H]1c1ccc(F)cc1 + Cc1cnc(CNC(=O)c2c(=O)c3ccc(N4CCCN(C)CC4)nc3n3c2sc2ccccc23)cn1
Second compound 0.0316 µM
  IC50: > 316 nM
Second compound 0.1 µM
  IC50: > 316 nM
Second compound 0.316 µM
  IC50: 40.3 nM
Second compound 1 µM
  IC50: < 0.999 nM
Second compound 3.16 µM
  IC50: < 0.999 nM
Second compound 10 µM
  IC50: < 0.999 nM
Second compound 0.0316 µM, first compound 0.000999 µM
  viability, T/C: 100%
Second compound 0.0316 µM, first compound 0.00316 µM
  viability, T/C: 98.9%
Second compound 0.0316 µM, first compound 0.00999 µM
  viability, T/C: 107%
[1]
  viability, T/C: 97.4%
Second compound 0.0316 µM, first compound 0.0999 µM
  viability, T/C: 75.6%
[3]
  viability, T/C: 90.6%
Second compound 0.1 µM, first compound 0.000999 µM
  viability, T/C: 98.7%
Second compound 0.1 µM, first compound 0.00316 µM
  viability, T/C: 73.7%
Second compound 0.1 µM, first compound 0.00999 µM
  viability, T/C: 72.2%
[7]
  viability, T/C: 68.9%
Second compound 0.1 µM, first compound 0.0999 µM
  viability, T/C: 55.7%
[9]
  viability, T/C: 60.5%
Second compound 0.316 µM, first compound 0.000999 µM
  viability, T/C: 55.8%
Second compound 0.316 µM, first compound 0.00316 µM
  viability, T/C: 55.5%
Second compound 0.316 µM, first compound 0.00999 µM
  viability, T/C: 49.4%
[13]
  viability, T/C: 53.8%
Second compound 0.316 µM, first compound 0.0999 µM
  viability, T/C: 46.6%
[15]
  viability, T/C: 43%
Second compound 1 µM, first compound 0.000999 µM
  viability, T/C: 39%
Second compound 1 µM, first compound 0.00316 µM
  viability, T/C: 47.1%
Second compound 1 µM, first compound 0.00999 µM
  viability, T/C: 44.3%
[19]
  viability, T/C: 41.8%
Second compound 1 µM, first compound 0.0999 µM
  viability, T/C: 41.4%
[21]
  viability, T/C: 44.3%
Second compound 3.16 µM, first compound 0.000999 µM
  viability, T/C: 35.9%
Second compound 3.16 µM, first compound 0.00316 µM
  viability, T/C: 43.8%
Second compound 3.16 µM, first compound 0.00999 µM
  viability, T/C: 34.2%
[25]
  viability, T/C: 30.3%
Second compound 3.16 µM, first compound 0.0999 µM
  viability, T/C: 34.2%
[27]
  viability, T/C: 32.7%
Second compound 10 µM, first compound 0.000999 µM
  viability, T/C: 29.1%
Second compound 10 µM, first compound 0.00316 µM
  viability, T/C: 32.7%
Second compound 10 µM, first compound 0.00999 µM
  viability, T/C: 33%
[31]
  viability, T/C: 32.4%
Second compound 10 µM, first compound 0.0999 µM
  viability, T/C: 36.2%
[33]
  viability, T/C: 32.3%

## O=C(c1cc(Cc2n[nH]c(=O)c3ccccc23)ccc1F)N1CCN(C(=O)C2CC2)CC1 + Cc1cnc(CNC(=O)c2c(=O)c3ccc(N4CCCN(C)CC4)nc3n3c2sc2ccccc23)cn1
Second compound 0.0316 µM
  IC50: > 10000 nM
Second compound 0.1 µM
  IC50: > 10000 nM
Second compound 0.316 µM
  IC50: 760 nM
Second compound 1 µM
  IC50: < 31.6 nM
Second compound 3.16 µM
  IC50: < 31.6 nM
Second compound 10 µM
  IC50: < 31.6 nM
[1]
  viability, T/C: 108%
[2]
  viability, T/C: 98.9%
[3]
  viability, T/C: 101%
[4]
  viability, T/C: 95.5%
[5]
  viability, T/C: 85.4%
[6]
  viability, T/C: 68.1%
[7]
  viability, T/C: 80.9%
[8]
  viability, T/C: 71.1%
[9]
  viability, T/C: 65.8%
[10]
  viability, T/C: 65.3%
[11]
  viability, T/C: 61.8%
[12]
  viability, T/C: 51.8%
[13]
  viability, T/C: 49.5%
[14]
  viability, T/C: 57.8%
[15]
  viability, T/C: 58.6%
[16]
  viability, T/C: 48.3%
[17]
  viability, T/C: 45%
[18]
  viability, T/C: 42%
[19]
  viability, T/C: 40.6%
[20]
  viability, T/C: 40.6%
[21]
  viability, T/C: 43.6%
[22]
  viability, T/C: 35.7%
[23]
  viability, T/C: 38%
[24]
  viability, T/C: 34.7%
[25]
  viability, T/C: 32%
[26]
  viability, T/C: 36.7%
[27]
  viability, T/C: 43%
[28]
  viability, T/C: 31.4%
[29]
  viability, T/C: 30.8%
[30]
  viability, T/C: 32.7%
[31]
  viability, T/C: 26.9%
[32]
  viability, T/C: 30.4%
[33]
  viability, T/C: 30.5%
[34]
  viability, T/C: 29.2%
[35]
  viability, T/C: 30.2%
[36]
  viability, T/C: 24.8%

Source: PubChem BioAssay AID2060485 (Molecular Pharmacology Branch, DTP, NCI, 2025)
